Test results reported in patent US20260373156A1, “CANCER TREATMENTS USING MTA-COOPERATIVE PRMT5 INHIBITORS” (AMGEN INC., priority 2022, published 2026).

Tests used:
HCC1395 cells = assay: CellTiter-Glo viability and CalcuSyn synergy, PRMT5 inhibitor + olaparib, 6 days; settings: for Combination Fa: 8640 min
UM-UC-3 cells = assay: CellTiter-Glo viability and CalcuSyn synergy, PRMT5 inhibitor + sotorasib, 6 days; format: cell-based; settings: for Combination Fa: 8640 min
Method: (§1) Raw luminescent values were converted to fraction affected (Fa) with the following equation: […]
(§2) Synergy analysis was performed using the CalcuSyn software to determine CI scores based on the drug concentrations used and corresponding Fa values. Results are shown in Table 6 below. *CI Values (Calcusyn): Strong Synergism: 0.1-0.3; Synergism: 0.3-0.7; Moderate Synergism: 0.7-0.85; Slight Synergism: 0.85-0.9; Nearly Additive: 0.9-1.1.

LU99 cells = assay: CellTiter-Glo viability and CalcuSyn synergy, PRMT5 inhibitor + KIF18A, 6 days; format: cell-based; settings: for Combination Fa: 8640 min
Method: as §1
as §2, with “Tables 13-15” for “Table 6”

H292 cells = assay: CellTiter-Glo viability and CalcuSyn synergy, PRMT5 inhibitor + palbociclib, 6 days; settings: for Combination Fa: 8640 min
MIAPACA2T2 cells = assay: CellTiter-Glo viability and CalcuSyn synergy, PRMT5 inhibitor + trametinib, 6 days; settings: for Combination Fa: 8640 min
MIAPACA2 cells = assay: CellTiter-Glo viability and CalcuSyn synergy, PRMT5 inhibitor + sotorasib, 6 days (Example 15); format: cell-based; parameters: key: CI<1 synergy, CI=1 additivity, CI>1 antagonism
Method: as §1
Synergy analysis was performed using the CalcuSyn software to determine CI scores based on the drug concentrations used and corresponding Fa values. Results are shown in Table 24 below. *CI Values (Calcusyn): CI<1 indicates synergy. C=1 indicates additivity. C>1 indicates antagonism.

[1] = Compound B 1.4579 μM + olaparib 0.103573 μM
[2] = Compound B 1.4579 μM + olaparib 0.176074 μM
[3] = Compound B 1.4579 μM + olaparib 0.299326 μM
[4] = Compound B 1.4579 μM + olaparib 0.508854 μM
[5] = Compound B 1.4579 μM + olaparib 0.865052 μM
[6] = Compound B 1.4579 μM + olaparib 1.47059 μM
[7] = Compound B 1.4579 μM + olaparib 2.5 μM
[8] = Compound B 0.2916 μM + sotorasib 0.00298 μM
[9] = Compound B 0.2916 μM + sotorasib 0.004768 μM
[10] = Compound B 0.2916 μM + sotorasib 0.007629 μM
[11] = Compound B 0.2916 μM + sotorasib 0.012207 μM
[12] = Compound B 0.2916 μM + sotorasib 0.019531 μM
[13] = Compound B 0.2916 μM + sotorasib 0.03125 μM
[14] = Compound B 0.0729 μM + KIF18A 0.003984 μM
[15] = Compound B 0.0729 μM + KIF18A 0.005578 μM
[16] = Compound B 0.0729 μM + KIF18A 0.007809 μM
[17] = Compound B 0.0729 μM + KIF18A 0.010933 μM
[18] = Compound B 0.0729 μM + KIF18A 0.015306 μM
[19] = Compound B 0.0729 μM + KIF18A 0.021429 μM
[20] = Compound B 0.0729 μM + KIF18A 0.03 μM
[21] = Compound B 0.0425 μM + palbociclib 0.044102 μM
[22] = Compound B 0.0425 μM + palbociclib 0.079383 μM
[23] = Compound B 0.0425 μM + palbociclib 0.14289 μM
[24] = Compound B 0.0425 μM + palbociclib 0.257202 μM
[25] = Compound B 0.0425 μM + palbociclib 0.462963 μM
[26] = Compound B 0.0425 μM + palbociclib 0.833333 μM
[27] = Compound B 0.0425 μM + palbociclib 1.5 μM
[28] = Compound B 0.437381 μM + trametinib 0.00101 μM
[29] = Compound B 0.437381 μM + trametinib 0.001918 μM
[30] = Compound B 0.437381 μM + trametinib 0.003645 μM
[31] = Compound B 0.437381 μM + trametinib 0.00531 μM
[32] = Compound B 0.437381 μM + trametinib 0.006925 μM
[33] = Compound B 0.437381 μM + trametinib 0.013158 μM
[34] = Compound B 0.437381 μM + trametinib 0.025 μM

Cc1cc2cc(C(=O)N(Cc3ccc(C(F)(F)F)cn3)[C@@H](C)c3ncccn3)ccc2nc1N [Compound B]
Computed CI value (HCC1395 cells; [1]): 0.217
Combination Fa (HCC1395 cells; [1]): 0.5945
Computed CI value (HCC1395 cells; [2]): 0.278
Combination Fa (HCC1395 cells; [2]): 0.6178
Computed CI value (HCC1395 cells; [3]): 0.338
Combination Fa (HCC1395 cells; [3]): 0.6595
Computed CI value (HCC1395 cells; [4]): 0.509
Combination Fa (HCC1395 cells; [4]): 0.6756
Computed CI value (HCC1395 cells; [5]): 0.679
Combination Fa (HCC1395 cells; [5]): 0.711
Computed CI value (HCC1395 cells; [6]): 0.706
Combination Fa (HCC1395 cells; [6]): 0.7778
Computed CI value (HCC1395 cells; [7]): 0.59
Combination Fa (HCC1395 cells; [7]): 0.8539
Computed CI value (UM-UC-3 cells; [8]): 1.172
Combination Fa (UM-UC-3 cells; [8]): 0.5393
Computed CI value (UM-UC-3 cells; [9]): 1.028
Combination Fa (UM-UC-3 cells; [9]): 0.6004
Computed CI value (UM-UC-3 cells; [10]): 0.778
Combination Fa (UM-UC-3 cells; [10]): 0.6836
Computed CI value (UM-UC-3 cells; [11]): 0.685
Combination Fa (UM-UC-3 cells; [11]): 0.7355
Computed CI value (UM-UC-3 cells; [12]): 0.677
Combination Fa (UM-UC-3 cells; [12]): 0.7685
Computed CI value (UM-UC-3 cells; [13]): 0.584
Combination Fa (UM-UC-3 cells; [13]): 0.8141
Computed CI value (LU99 cells; [14]): 0.937
Combination Fa (LU99 cells; [14]): 0.596
Computed CI value (LU99 cells; [15]): 0.625
Combination Fa (LU99 cells; [15]): 0.7067
Computed CI value (LU99 cells; [16]): 0.753
Combination Fa (LU99 cells; [16]): 0.712
Computed CI value (LU99 cells; [17]): 0.651
Combination Fa (LU99 cells; [17]): 0.7754
Computed CI value (LU99 cells; [18]): 0.797
Combination Fa (LU99 cells; [18]): 0.785
Computed CI value (LU99 cells; [19]): 0.996
Combination Fa (LU99 cells; [19]): 0.7939
Computed CI value (LU99 cells; [20]): 1.312
Combination Fa (LU99 cells; [20]): 0.797
Computed CI value (H292 cells; [21]): 0.421
Combination Fa (H292 cells; [21]): 0.6807
Computed CI value (H292 cells; [22]): 0.403
Combination Fa (H292 cells; [22]): 0.7009
Computed CI value (H292 cells; [23]): 0.284
Combination Fa (H292 cells; [23]): 0.7704
Computed CI value (H292 cells; [24]): 0.308
Combination Fa (H292 cells; [24]): 0.7959
Computed CI value (H292 cells; [25]): 0.395
Combination Fa (H292 cells; [25]): 0.8126
Computed CI value (H292 cells; [26]): 0.587
Combination Fa (H292 cells; [26]): 0.8205
Computed CI value (H292 cells; [27]): 0.878
Combination Fa (H292 cells; [27]): 0.8344
Computed CI value (MIAPACA2T2 cells; [28]): 0.675
Combination Fa (MIAPACA2T2 cells; [28]): 0.6193
Computed CI value (MIAPACA2T2 cells; [29]): 0.555
Combination Fa (MIAPACA2T2 cells; [29]): 0.6852
Computed CI value (MIAPACA2T2 cells; [30]): 0.674
Combination Fa (MIAPACA2T2 cells; [30]): 0.7091
Computed CI value (MIAPACA2T2 cells; [31]): 0.775
Combination Fa (MIAPACA2T2 cells; [31]): 0.5757
Computed CI value (MIAPACA2T2 cells; [32]): 0.557
Combination Fa (MIAPACA2T2 cells; [32]): 0.797
Computed CI value (MIAPACA2T2 cells; [33]): 0.651
Combination Fa (MIAPACA2T2 cells; [33]): 0.8405
Computed CI value (MIAPACA2T2 cells; [34]): 1.099
Combination Fa (MIAPACA2T2 cells; [34]): 0.8474
CI score (MIAPACA2 cells; Compound B 0.018 μM + sotorasib 0.006 μM): 0.68
CI score (MIAPACA2 cells; Compound B 0.018 μM + sotorasib 0.010 μM): 0.73
CI score (MIAPACA2 cells; Compound B 0.018 μM + sotorasib 0.015 μM): 0.64
CI score (MIAPACA2 cells; Compound B 0.018 μM + sotorasib 0.024 μM): 0.80
CI score (MIAPACA2 cells; Compound B 0.018 μM + sotorasib 0.039 μM): 0.77
CI score (MIAPACA2 cells; Compound B 0.018 μM + sotorasib 0.063 μM): 0.93
CI score (MIAPACA2 cells; Compound B 0.018 μM + sotorasib 0.100 μM): 1.25
CI score (MIAPACA2 cells; Compound B 0.034 μM + sotorasib 0.006 μM): 0.55
CI score (MIAPACA2 cells; Compound B 0.034 μM + sotorasib 0.010 μM): 0.59
CI score (MIAPACA2 cells; Compound B 0.034 μM + sotorasib 0.015 μM): 0.56
CI score (MIAPACA2 cells; Compound B 0.034 μM + sotorasib 0.024 μM): 0.76
CI score (MIAPACA2 cells; Compound B 0.034 μM + sotorasib 0.039 μM): 0.79
CI score (MIAPACA2 cells; Compound B 0.034 μM + sotorasib 0.063 μM): 0.83
CI score (MIAPACA2 cells; Compound B 0.034 μM + sotorasib 0.100 μM): 1.43
CI score (MIAPACA2 cells; Compound B 0.064 μM + sotorasib 0.006 μM): 0.52
CI score (MIAPACA2 cells; Compound B 0.064 μM + sotorasib 0.010 μM): 0.65
CI score (MIAPACA2 cells; Compound B 0.064 μM + sotorasib 0.015 μM): 0.68
CI score (MIAPACA2 cells; Compound B 0.064 μM + sotorasib 0.024 μM): 0.53
CI score (MIAPACA2 cells; Compound B 0.064 μM + sotorasib 0.039 μM): 0.72
CI score (MIAPACA2 cells; Compound B 0.064 μM + sotorasib 0.063 μM): 0.75
CI score (MIAPACA2 cells; Compound B 0.064 μM + sotorasib 0.100 μM): 1.24
CI score (MIAPACA2 cells; Compound B 0.121 μM + sotorasib 0.006 μM): 0.63
CI score (MIAPACA2 cells; Compound B 0.121 μM + sotorasib 0.010 μM): 0.71
CI score (MIAPACA2 cells; Compound B 0.121 μM + sotorasib 0.015 μM): 0.53
CI score (MIAPACA2 cells; Compound B 0.121 μM + sotorasib 0.024 μM): 0.64
CI score (MIAPACA2 cells; Compound B 0.121 μM + sotorasib 0.039 μM): 0.67
CI score (MIAPACA2 cells; Compound B 0.121 μM + sotorasib 0.063 μM): 0.96
CI score (MIAPACA2 cells; Compound B 0.121 μM + sotorasib 0.100 μM): 1.02
CI score (MIAPACA2 cells; Compound B 0.230 μM + sotorasib 0.006 μM): 0.65
CI score (MIAPACA2 cells; Compound B 0.230 μM + sotorasib 0.010 μM): 0.63
CI score (MIAPACA2 cells; Compound B 0.230 μM + sotorasib 0.015 μM): 0.55
CI score (MIAPACA2 cells; Compound B 0.230 μM + sotorasib 0.024 μM): 0.51
CI score (MIAPACA2 cells; Compound B 0.230 μM + sotorasib 0.039 μM): 0.71
CI score (MIAPACA2 cells; Compound B 0.230 μM + sotorasib 0.063 μM): 0.72
CI score (MIAPACA2 cells; Compound B 0.230 μM + sotorasib 0.100 μM): 1.00
CI score (MIAPACA2 cells; Compound B 0.437 μM + sotorasib 0.006 μM): 0.55
CI score (MIAPACA2 cells; Compound B 0.437 μM + sotorasib 0.010 μM): 0.70
CI score (MIAPACA2 cells; Compound B 0.437 μM + sotorasib 0.015 μM): 0.52
CI score (MIAPACA2 cells; Compound B 0.437 μM + sotorasib 0.024 μM): 0.61
CI score (MIAPACA2 cells; Compound B 0.437 μM + sotorasib 0.039 μM): 0.65
CI score (MIAPACA2 cells; Compound B 0.437 μM + sotorasib 0.063 μM): 0.67
CI score (MIAPACA2 cells; Compound B 0.437 μM + sotorasib 0.100 μM): 1.06
CI score (MIAPACA2 cells; Compound B 0.831 μM + sotorasib 0.006 μM): 0.83
CI score (MIAPACA2 cells; Compound B 0.831 μM + sotorasib 0.010 μM): 0.85
CI score (MIAPACA2 cells; Compound B 0.831 μM + sotorasib 0.015 μM): 0.68
CI score (MIAPACA2 cells; Compound B 0.831 μM + sotorasib 0.024 μM): 0.65
CI score (MIAPACA2 cells; Compound B 0.831 μM + sotorasib 0.039 μM): 0.75
CI score (MIAPACA2 cells; Compound B 0.831 μM + sotorasib 0.063 μM): 0.89
CI score (MIAPACA2 cells; Compound B 0.831 μM + sotorasib 0.100 μM): 1.15
CI score (MIAPACA2 cells; Compound B 1.579 μM + sotorasib 0.006 μM): 1.30
CI score (MIAPACA2 cells; Compound B 1.579 μM + sotorasib 0.010 μM): 1.37
CI score (MIAPACA2 cells; Compound B 1.579 μM + sotorasib 0.015 μM): 0.95
CI score (MIAPACA2 cells; Compound B 1.579 μM + sotorasib 0.024 μM): 0.91
CI score (MIAPACA2 cells; Compound B 1.579 μM + sotorasib 0.039 μM): 0.95
CI score (MIAPACA2 cells; Compound B 1.579 μM + sotorasib 0.063 μM): 0.98
CI score (MIAPACA2 cells; Compound B 1.579 μM + sotorasib 0.100 μM): 1.25
